Earlier results in patent US20070026087A1 (priority 2003, published 2007).
Read-outs that look alike come from different tables or passages of the source.

What was measured:
Vacciniavirus = settings: Thurman & Gerba 1989
Adenovirus = settings: Thurman & Gerba 1989
[1] = system: HSV (herpes simplex virus)-1; settings: Thurman & Gerba 1989
[2] = system: HSV (herpes simplex virus)-2; settings: Thurman & Gerba 1989
HVJ = settings: Thurman & Gerba 1989
[3] = reported, effective only temporarily

## CC(=O)OO [peracetic acid]
SARS coronavirus
  efficacy as disinfectant against SARS coronavirus: effective

## CCO [ethanol]
SARS coronavirus; [3]
  efficacy as disinfectant against SARS coronavirus: effective

## OCl [sodium hypochlorite]
SARS coronavirus; [3]
  efficacy as disinfectant against SARS coronavirus: effective

## O=CCCCC=O [glutaraldehyde]
SARS coronavirus; [3]
  efficacy as disinfectant against SARS coronavirus: effective

## C1CO1 [ethylene oxide gas, ethylene oxide]
SARS coronavirus; [3]
  efficacy as disinfectant against SARS coronavirus: effective

## O=[N+]([O-])[O-].[Ag+] [silver nitrate]
Vacciniavirus
  efficacy against Vacciniavirus: not effective
Poliovirus
  efficacy against Poliovirus: not effective
VSV
  efficacy against VSV: not effective
Adenovirus
  efficacy against Adenovirus: not effective
[1]
  efficacy against HSV-1: effective
[2]
  efficacy against HSV-2: effective
HVJ
  efficacy against HVJ: not effective
